Values quoted from earlier work as cited in patent US20250049738A1, “METHOD OF TREATMENT AND SELECTION OF PATIENTS BENEFITING FROM AGOMELATINE BASED ON EEG MEASUREMENTS” (Alto Neuroscience, Inc., priority 2023, published 2025).

Columns and labels:
depression = conditions: in vivo; cited from earlier work
circadian rhythm = conditions: in vivo; cited from earlier work

For `COc1ccc2[nH]cc(CCNC(C)=O)c2c1` [melatonin], the antidepressant efficacy (depression) is given as “not an effective antidepressant” and the “effect on circadian rhythm” value (circadian rhythm) is given as “phase advance circadian rhythm”.
